Test results from PubChem BioAssay (NCI).
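Briefly, cells in 96-well plates were exposed to five compound concentrations for 48 h, and endpoints were estimated by linear interpolation. TGI marks complete inhibition of growth.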

Legend:
Experiment in all cases: NCI anticancer screen, dose series, 48 h
OVCAR-8 ovarian = system: OVCAR-8 ovarian
COLO 205 colon = system: COLO 205 colon
SK-MEL-28 melanoma = system: SK-MEL-28 melanoma
U251 CNS = system: U251 CNS
UACC-62 melanoma = system: UACC-62 melanoma
DU-145 prostate = system: DU-145 prostate
SF-268 CNS = system: SF-268 CNS
HL-60(TB) leukemia = system: HL-60(TB) leukemia
EKVX NSCLC = system: EKVX NSCLC
NCI-H522 lung = system: NCI-H522 lung

SMILES	TGI (OVCAR-8 ovarian) [µM]	TGI (COLO 205 colon) [µM]	TGI (SK-MEL-28 melanoma) [µM]	TGI (U251 CNS) [µM]	TGI (UACC-62 melanoma) [µM]	TGI (DU-145 prostate) [µM]	TGI (SF-268 CNS) [µM]	TGI (HL-60(TB) leukemia) [µM]	TGI (EKVX NSCLC) [µM]	TGI (NCI-H522 lung) [µM]
Cc1cn(C2CC(n3cc(Cn4cc(I)c(=O)[nH]c4=O)nn3)C(CO)O2)c(=O)[nH]c1=O (configuration not stated)	> 100	> 100	> 100	> 100	> 100	> 100	> 100	–	–	–
CC1(C)N=C(/C(Cl)=[N+](/[O-])C(=O)c2ccc(F)cc2)C(C)(C)N1O	33.9	38.2	32.4	–	33	78.7	33.6	27.3	40.6	–
CCC12C=CCN3CCC4(C(=C(C(=O)OC)[C@@H]1O)Nc1ccccc14)C32 (some centres not stated)	5.33	3.22	4.13	5.52	4.76	–	6.76	4.98	3.92	3.06
O=C1CCC23CC(C=CC=C12)n1c(=O)n(-c2ccccc2)c(=O)n13 (configuration not stated)	> 100	> 100	> 100	> 100	> 100	–	> 100	> 80.5	> 100	> 100
CC1=C(C)[C@@]2(C)O[C@@]2(C)O[C@@]2(C)O[C@@]12C	> 100	> 100	> 100	> 100	> 100	> 100	> 100	–	> 100	> 100
O=C(O)c1cccc2c1/C(=N/Nc1ccccc1)CC2	> 100	–	> 100	> 100	–	> 100	> 100	–	> 100	> 100
O=C(Nc1ccc(C2=NCCN2)cc1)c1cncc(C(=O)Nc2ccc(C3=NCCN3)cc2)c1	> 100	> 100	> 31.6	> 100	> 100	–	> 31.6	> 100	> 100	> 100
COC(=O)[C@H](Cc1c[nH]c2ccccc12)NP(=O)(O)OCC1C=CC(n2cc(C)c(=O)[nH]c2=O)O1 (some centres not stated)	> 100	> 100	> 100	> 100	> 100	> 100	> 100	> 100	> 100	–
FC(F)(F)c1cc(Cl)cnc1N/N=C(/c1ccccc1)c1ccccn1	5.06	> 100	> 100	41.3	13.2	> 100	11.3	–	4.97	8.31
COC(=O)c1cc2c(n1S(=O)(=O)c1ccc(C)cc1)C(=O)C(=O)c1[nH]cc(C(=O)OCc3ccccc3)c1-2	0.706	0.433	0.226	0.809	0.138	0.276	1.24	–	0.665	0.48
Cc1cccc(/C=N/NC(=S)Nc2ccccc2)n1	8.92	–	> 100	> 54.9	12.5	> 67.7	> 100	> 24.7	> 49.3	–
COc1cc(/C=C2\S/C(=N/Nc3nc(-c4ccc(Br)cc4)cs3)NC2=O)cc(OC)c1OC	29.6	71.3	99.1	16.3	25.4	52.4	> 100	–	63.8	30.2
COc1cc([C@@H]2c3cc4c(cc3[C@@H](Nc3ccc([N+](=O)[O-])cc3C(=O)c3ccccc3)[C@H]3COC(=O)[C@H]23)OCO4)cc(OC)c1OC	> 100	–	–	> 100	> 100	> 100	> 100	–	> 100	> 51
Cc1cccc2c(=O)cc(-c3ccccc3)[nH]c12	–	51.5	> 100	> 100	> 100	–	> 100	> 100	> 100	–
CC(C)/C(Cl)=N\OC(=O)Nc1ccc(S(N)(=O)=O)cc1	32	3.92	31.3	35.7	37	31.8	51.7	–	32.6	2.55
CNC(=O)C(C)C1CCC2(C)C=CC(=O)C(C)=C2C1O (configuration not stated)	> 87.9	> 64.7	> 100	> 64.9	> 100	–	> 100	> 100	> 100	> 100
[N-]=[N+]=Nc1cc(=O)oc2ccccc12	> 100	> 100	> 100	> 100	> 100	–	> 100	> 100	–	> 100
